The values that follow come from US20100286035A1, “NEUROMEDIN U DERIVATIVE” (Takeda Pharmaceutical Company Limited, priority 2007, published 2010).

Where no end group is shown, it is not given here.

What all share (assay type): in vivo
Experiment [1] concerns male C57BL/6J mice. Description: Test Example 6: antifeedant activity of NMU-8 PEG conjugate in mice. Conditions: 100 nmol/kg intraperitoneally, mice fasted for 16 hours (FIG. 7). As to the method: 7 weeks old male C57BL/6J mice delivered from the Japan Charles River Company were raised for 5 to 10 days after delivery under a feeding environment regulated for temperature and humidity with lighting time (25° C., 12 hours of lighted period and 12 hours of dark period, light was lit at 8:00). Four animals were placed in one cage. After handling the mice for 5 to 8 days, the animals were housed singly in each cage where a floor mesh was spread and acclimated by intraperitoneal injection for 3 days prior to the administration of a peptide (conjugate). The animals acclimated were fasted for 16 hours from 18:00 prior to the administration of the peptide (conjugate). However, the animals had free access to drinking water). […] After the injection of the peptide (conjugate) solution, MF feed which had been weighed (Oriental Yeast Industry) was given freely to the mice. Further, the residual amount of the feed was measured after 3, 6 and 24 hours. The food intakes at 3, 6 and 24 hours were calculated by subtracting the residual amount of the feed after 3, 6 and 24 hours from the amount of the feed that was originally given.

For experiment [2], the system named is male C57BL/6J mice. Description: Test Example 7: antifeedant activity of NMU-8 PEG conjugate in mice. Conditions: 10 nmol/kg intraperitoneally, mice fasted for 16 hours (FIG. 8). As to the method: 7 weeks old male C57BL/6J mice delivered from the Japan Charles River Company were raised for 5 to 10 days after delivery under a feeding environment regulated for temperature and humidity with lighting time (25° C., 12 hours of lighted period and 12 hours of dark period, light was lit at 8:00). Four animals were placed in one cage. After handling the mice for 5 to 8 days, the animals were housed singly in each cage where a floor mesh was spread and acclimated by intraperitoneal injection using a syringe (micro injector, syringe for insulin administration, Terumo) for 3 days prior to the administration of a peptide (conjugate). The animals acclimated were fasted for 16 hours from 18:00 prior to the administration of the peptide (conjugate). However, the animals were free access to drinking water). Subsequently, a peptide dissolved in physiological saline solution (conjugate) namely 2.51 μM PEG30k-NMU-8 [5], 2.51 μM PEG30k-Cys-NMU-8 [6], 2.51 μM PEG30k-(Traut)-NMU-8 [7], 2.51 μM PEG30k (SMCC)-NMU-8 [4] were administered intraperitoneally at 10:00 on the day of administration to the mice such that the dosage of each solution (100 μl) was 10 nmol/kg. After the injection of the peptide (conjugate) solution, MF feed which had been weighed (Oriental Yeast Industry) was given freely to the mice. Further, the residual amount of the feed was measured after 3, 6 and 24 hours. The food intakes at 3, 6 and 24 hours were calculated by subtracting the residual amount of the feed after 3, 6 and 24 hours from the amount of the feed that was originally given.

Experiment [3] concerns male C57BL/6J mice. Description: Test Example 4: antifeedant activity of NMU-8 PEG conjugate in mice. Conditions: 100 nmol/kg intraperitoneally, mice fasted for 16 hours (FIG. 5). As to the method: 7 weeks old male C57BL/6J mice delivered from the Japan Charles River Company were raised for 5 to 10 days after delivery under a feeding environment regulated for temperature and humidity with lighting time (25° C., 12 hours of lighted period and 12 hours of dark period, light was lit at 8:00). Four animals were placed in one cage. After handling the mice for 5 to 8 days, the animals were housed singly in each cage where a floor mesh was spread and acclimated by intraperitoneal injection for 3 days prior to the administration of a peptide (conjugate). The animals acclimated were fasted for 16 hours from 18:00 prior to the administration of the peptide (conjugate). However, the animals had free access to drinking water). Subsequently, a peptide dissolved in physiological saline solution (conjugate) was intraperitoneally injected into the mice, namely 24.2 μM PEG30k (GMBS)-NMU-8 [1], 24.2 μM PEG30k (EMCS)-NMU-8 [2], 24.2 μM PEG30k (KMUS)-NMU-8 [3], 24.2 μM PEG30k (SMCC)-NMU-8 [4] were administered intraperitoneally at 10:00 on the day of administration to the mice such that the dosage of each solution (100 μl) was 100 nmol/kg. After the injection of the peptide (conjugate) solution, MF feed which had been weighed (Oriental Yeast Industry) was given freely to the mice. Further, the residual amount of the feed was measured after 3, 6 and 24 hours. The food intakes at 3, 6 and 24 hours were calculated by subtracting the residual amount of the feed after 3, 6 and 24 hours from the amount of the feed that was originally given.

The subject of experiment [4] is male C57BL/6J mice. Description: Test Example 5: antifeedant activity of NMU-8 PEG conjugate in mice. The settings on record: 10 nmol/kg intraperitoneally, mice fasted for 16 hours (FIG. 6). On the procedure:
7 weeks old male C57BL/6J mice delivered from the Japan Charles River Company were raised for 5 to 10 days after delivery under a feeding environment regulated for temperature and humidity with lighting time (25° C., 12 hours of lighted period and 12 hours of dark period, light was lit at 8:00). Four animals were placed in one cage. After handling the mice for 5 to 8 days, the animals were housed singly in each cage where a floor mesh was spread and acclimated by intraperitoneal injection using a syringe (micro injector, syringe for insulin administration, Terumo) for 3 days prior to the administration of a peptide (conjugate). The animals acclimated were fasted for 16 hours from 18:00 prior to the administration of the peptide (conjugate). However, the animals had free access to drinking water). Subsequently, a peptide dissolved in physiological saline solution (conjugate) namely 2.39 μM PEG30k (GMBS)-NMU-8 [1], 2.39 μM PEG30k (EMCS)-NMU-8 [2], 2.39 μM PEG30k (KMUS)-NMU-8 [3], 2.39 μM PEG30k (SMCC)-NMU-8 [4] were administered intraperitoneally at 10:00 on the day of administration to the mice such that the dosage of each solution (100 μl) was 10 nmol/kg. After the injection of the peptide (conjugate) solution, MF feed which had been weighed (Oriental Yeast Industry) was given freely to the mice. Further, the residual amount of the feed was measured after 3, 6 and 24 hours. The food intakes at 3, 6 and 24 hours were calculated by subtracting the residual amount of the feed after 3, 6 and 24 hours from the amount of the feed that was originally given.

The subject of experiment [5] is male C57BL/6J mice. Description: Test Example 8: antifeedant activity of NMU-8 PEG conjugate in mice. Conditions: 100 nmol/kg intraperitoneally, mice fasted for 16 hours (FIG. 9). On the procedure:
7 weeks old male C57BL/6J mice delivered from the Japan Charles River Company were raised for 5 to 10 days after delivery under a feeding environment regulated for temperature and humidity with lighting time (25° C., 12 hours of lighted period and 12 hours of dark period, light was lit at 8:00). Four animals were placed in one cage. After handling the mice for 5 to 8 days, the animals were housed singly in each cage where a floor mesh was spread and acclimated by intraperitoneal injection for 3 days prior to the administration of a peptide (conjugate). The animals acclimated were fasted for 16 hours from 18:00 prior to the administration of the peptide (conjugate). However, the animals has free access to drinking water). Subsequently, a peptide (conjugate) dissolved in physiological saline solution was intraperitoneally injected to the mice, namely 24.3 μM PEG30k (ACP)-NMU-8 [14], 24.3 μM (PEG20k)2 (ACP)-NMU-8 [29], 24.3 μM PEG30k (AB)-NMU-8 [11], 24.3 μM (PEG20k)2 (AB)-NMU-8 [26], 24.3 μM PEG30k (NH-AB)-NMU-8 [42], 24.3 μM PEG30k (SMCC)-NMU-8 [4] were administered intraperitoneally at 10:00 on the day of administration to the mice such that the dosage of each solution (100 μl) was 100 nmol/kg. After the injection of the peptide (conjugate) solution, MF feed which had been weighed (Oriental Yeast Industry) was given freely to the mice. Further, the residual amount of the feed was measured after 3, 6 and 24 hours. The food intakes at 3, 6 and 24 hours were calculated by subtracting the residual amount of the feed after 3, 6 and 24 hours from the amount of the feed that was originally given.

The subject of experiment [6] is male C57BL/6J mice. Description: Test Example 1: antifeedant activity of NMU-23 and NMS in mice. The settings on record: 3 mg/kg intraperitoneally, mice fasted for 16 hours. As to the method: 7 weeks old male C57BL/6J mice (mean bodyweight: 24 g) delivered from the Japan Charles River Company were raised for 5 to 7 days after the delivery under a feeding environment regulated for temperature and humidity with lighting time (25° C., 12 hours of lighted period and 12 hours of dark period, light was lit at 8:00). Four animals were placed in one cage. After handling the mice for 5 to 8 days, the animals were housed singly in each cage where a floor mesh was spread and acclimated by intraperitoneal injection for 3 days prior to the administration of a peptide. The animals acclimated were fasted for 16 hours from 18:00 prior to the administration of the peptide. However, the animals had free access to drinking water. Subsequently, a peptide, namely 720 μg/ml rat NMU-23 (peptide Institution) [Sequence No. 5], or rat NMS (Bachem) [Sequence No. 9] dissolved in physiological saline solution was intraperitoneally injected to the mice such that the dosage of each solution (100 μl) was 3 mg/kg at 10:00 on the day of administration. […] Further, the residual amount of the feed was measured after 3, 6 and 24 hours. The food intakes at 3, 6 and 24 hours were calculated by subtracting the residual amount of the feed after 3, 6 and 24 hours from the amount of the feed that was originally given. […]

For experiment [7], the system named is male C57BL/6J mice. Description: Test Example 2: antifeedant activity of NMU-23 and NMU-8 in mice. On the procedure:
7 weeks old male C57BL/6J mice (mean bodyweight: 25 g) delivered from the Japan Charles River Company were raised for 5 to 10 days after delivery under a feeding environment regulated for temperature and humidity with lighting time (25° C., 12 hours of lighted period and 12 hours of dark period, light was lit at 8:00). Four animals were placed in one cage. After handling the mice for 5 to 8 days, the animals were housed singly in each cage where a floor mesh was spread and acclimated by intraperitoneal injection for 3 days prior to the administration of a peptide. The animals acclimated were fasted for 16 hours from 18:00 prior to the administration of the peptide. However, the animals had free access to drinking water. […] After the injection of the peptide solution, MF feed which had been weighed (Oriental Yeast Industry) was given freely to the mice. Further, the residual amount of the feed was measured after 3, 6 and 24 hours. The food intakes at 3, 6 and 24 hours were calculated by subtracting the residual amount of the feed after 3, 6 and 24 hours from the amount of the feed that was originally given.
[In FIG. 2, * and ** tested by T-tests indicated to be lower at the levels of significance of 0.05 and 0.01 (P<0.05 and P<0.01]

Consider PEG30k-NMU-8, for which the “intakes of the feed at 3, 6 and 24 hours” value in the experiment with male C57BL/6J mice [1] and in the experiment with male C57BL/6J mice [2] was “significantly suppressed” in each case.
For the substance PEG30k(KMUS)-NMU-8, the “intakes of the feed at 3, 6 and 24 hours” value in the experiment on male C57BL/6J mice [3] and in the experiment with male C57BL/6J mice [4] was “significantly suppressed” throughout.
Regarding (PEG20k)2(ACP)-NMU-8, the “intakes of the feed at 3, 6 and 24 hours” value in the experiment on male C57BL/6J mice [5] is recorded as “significantly suppressed”.
As for (PEG20k)2(AB)-NMU-8, the “intakes of the feed at 3, 6 and 24 hours” value in the experiment with male C57BL/6J mice [5] is “significantly suppressed”.
As for PEG30k(Traut)-NMU-8, the “intakes of the feed at 3, 6 and 24 hours” value in the experiment on male C57BL/6J mice [1] and in the experiment on male C57BL/6J mice [2] was “significantly suppressed” throughout.
For the substance “PEG30k-Cys-NMU-8 (C(PEG 30 kDa)FFLFRPRN-NH2)”, the “intakes of the feed at 3, 6 and 24 hours” value with male C57BL/6J mice [1] and in the experiment on male C57BL/6J mice [2] was “significantly suppressed” in each case.
“rat NMS: rat neuromedin S (Bachem) [Sequence No. 9] (LPRLLHTDSRMATIDFPKKDPTTSLGRPFFLFRPRN-NH2; listed as Rattus norvegicus)”: in the experiment on male C57BL/6J mice [6], the “intakes of the feed at 3, 6 and 24 hours” value is listed as “significantly suppressed”.
PEG30k(ACP)-NMU-8: the “intakes of the feed at 3, 6 and 24 hours” value in the experiment with male C57BL/6J mice [5] is reported as “significantly suppressed”.
PEG30k(GMBS)-NMU-8: the “intakes of the feed at 3, 6 and 24 hours” value in the experiment with male C57BL/6J mice [3] and in the experiment on male C57BL/6J mice [4] was “significantly suppressed” in each case.
Take “Tyr-Lys-Val-Asn-Glu-Tyr-Gln-Gly-Pro-Val-Ala-Pro-Ser-Gly-Gly-Phe-Phe-Leu-Phe-Arg-Pro-Arg-Asn-NH2 (YKVNEYQGPVAPSGGFFLFRPRN-NH2; listed as Rattus norvegicus) [rat NMU-23]”: the “intakes of the feed at 3, 6 and 24 hours” value with male C57BL/6J mice [6] is recorded as “significantly suppressed”. Also, in the experiment on male C57BL/6J mice [7] (3 mg/kg intraperitoneally, mice fasted for 16 hours), the “intakes of the feed at 3 and 6 hours” value was “significantly suppressed”. The “antifeedant activity via peripheral administration” value in the experiment on male C57BL/6J mice [7] (peripheral administration) is on record as “expresses an antifeedant activity”.
For PEG30k(AB)-NMU-8, the “intakes of the feed at 3, 6 and 24 hours” value in the experiment on male C57BL/6J mice [5] is on record as “significantly suppressed”.
PEG30k(SMCC)-NMU-8: the “intakes of the feed at 3, 6 and 24 hours” value with male C57BL/6J mice [5], in the experiment on male C57BL/6J mice [1], with male C57BL/6J mice [3], with male C57BL/6J mice [4] and with male C57BL/6J mice [2] was “significantly suppressed” in each case.
In the case of PEG30k(EMCS)-NMU-8, the “intakes of the feed at 3, 6 and 24 hours” value with male C57BL/6J mice [3] and in the experiment with male C57BL/6J mice [4] was “significantly suppressed” throughout.
